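The compound was tested at five concentrations on cells cultured in 96-well plates, with a 48-hour exposure period. GI50: concentration for 50% inhibition of growth. TGI marks complete inhibition of growth.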

The source of these data is PubChem BioAssay (NCI).

Some test systems named below: A498 renal; A549 NSCLC; HCT-15 colon; NCI-H522 lung; RPMI-8226 leukemia; SF-295 CNS; SF-539 CNS; SK-MEL-2 melanoma; SNB-75 CNS; HL-60(TB) leukemia.
What all share (assay): NCI anticancer screen, dose series, 48 h

For the molecule `OCC1OC(N2CCN(C3OC(CO)C(O)C(O)C3O)CC2)C(O)C(O)C1O` (centres undefined), the TGI in the experiment with A498 renal, with A549 NSCLC, in the experiment on HCT-15 colon, in the experiment with NCI-H522 lung, with RPMI-8226 leukemia and in the experiment on SF-295 CNS was above 100 µM each time. The TGI in the experiment on SF-539 CNS, with SK-MEL-2 melanoma and in the experiment with SNB-75 CNS was above 100 µM each time.

Take `COc1ccc(-c2oc(C=Nc3ccccc3)c([N+](=O)[O-])c2-c2ccc(OC)c(OC)c2)cc1OC`: the TGI in the experiment with A549 NSCLC, with HCT-15 colon, in the experiment on HL-60(TB) leukemia, with NCI-H522 lung, with RPMI-8226 leukemia and in the experiment with SF-295 CNS was above 100 µM throughout. Moreover, the TGI in the experiment with SF-539 CNS and in the experiment with SNB-75 CNS was above 100 µM in each case.

As for `O=C(C#Cc1ccccc1)Nc1ccccc1CC(c1c[nH]c2ccccc12)c1c[nH]c2ccccc12`, the TGI is above 100 µM with A549 NSCLC; 26.5 µM in the experiment on NCI-H522 lung; 16.8 µM in the experiment with RPMI-8226 leukemia; 80 µM in the experiment with SF-295 CNS; 30.1 µM with SF-539 CNS; 51.9 µM in the experiment on SK-MEL-2 melanoma. This molecule registered a TGI in the experiment on SNB-75 CNS above 100 µM.

On to `CCCCCCCN(CCCCCCC)C(=N)c1ccc(OC)c2ccccc12`, for which the GI50 in the experiment with A498 renal is 0.419 µM; in the experiment on A549 NSCLC, 1.37 µM; in the experiment on NCI-H522 lung, 1.25 µM; in the experiment with SF-295 CNS it was 1.24 µM; with SK-MEL-2 melanoma, 1.81 µM; in the experiment on SNB-75 CNS, 1.3 µM. The TGI stood at 1.8 µM in the experiment on A498 renal; 2.82 µM in the experiment on A549 NSCLC; 2.73 µM with NCI-H522 lung; 2.72 µM in the experiment with SF-295 CNS; 3.4 µM in the experiment with SK-MEL-2 melanoma; 2.6 µM in the experiment with SNB-75 CNS.

For the molecule `CCOC1=C2N=C(C(CC)c3ccc(F)cc3)N=C2C(=O)c2ccccc21` (centres undefined), the TGI in the experiment with A549 NSCLC is above 85.8 µM; with HCT-15 colon it was above 100 µM; in the experiment with HL-60(TB) leukemia, above 73.7 µM; in the experiment on NCI-H522 lung, 76.7 µM; with RPMI-8226 leukemia, above 88.5 µM; in the experiment on SF-295 CNS it was 63.7 µM. The TGI in the experiment with SF-539 CNS turned out to be 21.6 µM; with SK-MEL-2 melanoma, 39.5 µM; in the experiment with SNB-75 CNS, 81.5 µM.

Take `CC1O[C@@H]2CCCCC(=O)[C@]2(C)[C@H]1C` (some centres undefined): the TGI in the experiment with A549 NSCLC, in the experiment with HCT-15 colon, with HL-60(TB) leukemia, in the experiment on RPMI-8226 leukemia, with SF-295 CNS and in the experiment with SK-MEL-2 melanoma was above 100 µM each time. The molecule also yielded a TGI with SNB-75 CNS above 100 µM.

For the molecule `CCC(/C(=N/NC(=O)C[N+](C)(C)C)c1ccccc1)C1OC(=O)c2ccccc21` (centres undefined), the TGI with A549 NSCLC, in the experiment on HCT-15 colon, in the experiment on HL-60(TB) leukemia, with NCI-H522 lung, in the experiment on RPMI-8226 leukemia and in the experiment on SF-295 CNS was above 100 µM throughout. Besides, the TGI with SF-539 CNS and with SNB-75 CNS was above 100 µM each time.

Regarding `Nc1nc(N)c2c(n1)NC(c1ccc(Cl)cc1)C1CCc3ccccc3C1=N2` (centres undefined), the GI50 in the experiment on A498 renal is 5.34 µM; in the experiment with A549 NSCLC, 11.8 µM; in the experiment on HCT-15 colon, 4.16 µM; in the experiment on NCI-H522 lung it was 5.21 µM; in the experiment on RPMI-8226 leukemia, 2.75 µM; in the experiment with SF-295 CNS it was 3.37 µM. In addition, the figures for the GI50 in the experiment with SF-539 CNS, in the experiment with SK-MEL-2 melanoma and in the experiment with SNB-75 CNS were 6.17 µM, 10.6 µM and 13 µM, respectively. Further, the TGI came out at 19 µM in the experiment with A498 renal; 25 µM in the experiment on A549 NSCLC; 18.5 µM in the experiment on HCT-15 colon; 20.9 µM with NCI-H522 lung; 11.5 µM with RPMI-8226 leukemia; 14.7 µM in the experiment with SF-295 CNS. For the same molecule, the TGI in the experiment on SF-539 CNS came to 19.6 µM; in the experiment on SK-MEL-2 melanoma, 24.6 µM; in the experiment with SNB-75 CNS, 26.8 µM.

Consider `C=C1[C@H](O)C[C@@H](C(C)C(O)CC=C(C)C)[C@@H](O)[C@@H]2C(C)=CC[C@@H]12` (some centres undefined), for which the GI50 was above 100 µM in the experiment with A549 NSCLC; above 100 µM in the experiment with HCT-15 colon; above 100 µM with HL-60(TB) leukemia; 30.3 µM in the experiment with NCI-H522 lung; above 100 µM in the experiment with RPMI-8226 leukemia; above 100 µM with SF-295 CNS. In addition, the GI50 in the experiment with SF-539 CNS, in the experiment with SK-MEL-2 melanoma and in the experiment on SNB-75 CNS was above 100 µM in each case. The TGI is above 100 µM with A549 NSCLC; above 100 µM in the experiment with HCT-15 colon; above 100 µM with HL-60(TB) leukemia; 86.4 µM in the experiment with NCI-H522 lung; above 100 µM in the experiment with RPMI-8226 leukemia; above 100 µM in the experiment on SF-295 CNS. The TGI in the experiment with SF-539 CNS, in the experiment on SK-MEL-2 melanoma and with SNB-75 CNS was above 100 µM in each case.

For `O=S1(=O)CC#CC[C@@H](CO)[C@@H](CO)CC#CC1`, the TGI is above 100 µM with A549 NSCLC; above 100 µM with HCT-15 colon; above 100 µM in the experiment with HL-60(TB) leukemia; 32.6 µM with NCI-H522 lung; above 100 µM in the experiment with SF-295 CNS; above 100 µM with SF-539 CNS. The TGI with SK-MEL-2 melanoma and with SNB-75 CNS was above 100 µM each time.

As for `Oc1ccc(Cl)cc1N=Nc1c(O)ccc2ccccc12`, the TGI with A549 NSCLC, in the experiment with HCT-15 colon, in the experiment with HL-60(TB) leukemia, in the experiment on NCI-H522 lung, in the experiment with RPMI-8226 leukemia and in the experiment on SF-295 CNS was above 100 µM each time. Also, the TGI in the experiment on SK-MEL-2 melanoma and with SNB-75 CNS was above 100 µM throughout.

Turning to `CN(C)c1ccc(/C=C(\C#N)C(=O)c2ccccc2)cc1Br`, the TGI was above 100 µM with A549 NSCLC; 57.6 µM with HL-60(TB) leukemia; above 100 µM in the experiment on NCI-H522 lung; 63.4 µM in the experiment with RPMI-8226 leukemia; above 100 µM in the experiment with SF-295 CNS; above 100 µM in the experiment on SF-539 CNS. For the same molecule, the TGI in the experiment on SK-MEL-2 melanoma and in the experiment on SNB-75 CNS was above 100 µM in each case.

Take `O=c1[nH]c(C2CCCCC2)nc2ccc(Cl)cc12`: the TGI in the experiment with A549 NSCLC, in the experiment with HCT-15 colon, with RPMI-8226 leukemia, in the experiment on SF-295 CNS, in the experiment on SF-539 CNS and in the experiment with SK-MEL-2 melanoma was above 100 µM each time. For the same molecule, the TGI in the experiment with SNB-75 CNS was above 100 µM.

Consider `C#Cc1cccc(NC(=O)C2CCCCN2C(=O)CCl)c1` (centres undefined), for which the GI50 in the experiment with A549 NSCLC was above 82.5 µM; with HCT-15 colon, 9.61 µM; in the experiment on HL-60(TB) leukemia it was 16.8 µM; in the experiment on NCI-H522 lung, 8.72 µM; in the experiment on RPMI-8226 leukemia, 18 µM; in the experiment on SF-295 CNS it was above 82.5 µM. The GI50 in the experiment on SF-539 CNS is 17.4 µM; in the experiment with SK-MEL-2 melanoma, 23.9 µM; in the experiment on SNB-75 CNS, 17.9 µM. Besides, the TGI in the experiment with A549 NSCLC is above 82.5 µM; in the experiment on HCT-15 colon, 23.4 µM; with HL-60(TB) leukemia it was 51.7 µM; with NCI-H522 lung, 24.4 µM; with RPMI-8226 leukemia, 51.5 µM; with SF-295 CNS, above 82.5 µM. Also, the TGI in the experiment with SF-539 CNS was 49.4 µM; in the experiment with SK-MEL-2 melanoma it was above 82.5 µM; with SNB-75 CNS, above 82.5 µM.

Consider `O=C(O)[C@@H](Cc1ccccc1)NS(=O)(=O)c1ccc(-c2ccccc2)cc1`, for which the GI50 was 59.6 µM with A498 renal; above 100 µM in the experiment on A549 NSCLC; above 100 µM in the experiment on HCT-15 colon; above 100 µM in the experiment with NCI-H522 lung; above 100 µM with SF-295 CNS; above 100 µM in the experiment with SF-539 CNS. Besides, the GI50 with SK-MEL-2 melanoma and with SNB-75 CNS was above 100 µM each time. The TGI with A498 renal, with A549 NSCLC, in the experiment on HCT-15 colon, in the experiment on NCI-H522 lung, in the experiment on SF-295 CNS and with SF-539 CNS was above 100 µM throughout. The TGI with SK-MEL-2 melanoma and in the experiment on SNB-75 CNS was above 100 µM throughout.

`COc1ccc2c(c1)C(=O)CC(C(N)=O)C2` (centres undefined): the TGI with A549 NSCLC, in the experiment on HCT-15 colon, in the experiment on HL-60(TB) leukemia, in the experiment with NCI-H522 lung, in the experiment on RPMI-8226 leukemia and in the experiment on SF-295 CNS was above 100 µM throughout. Moreover, the TGI with SK-MEL-2 melanoma and with SNB-75 CNS was above 100 µM each time.

Regarding `Cc1ccc(C2=C(c3ccccc3)C(O)(c3ccccc3)C(c3ccccc3)=C2c2ccc(C)cc2)cc1`, the TGI in the experiment with A498 renal, with A549 NSCLC, with HCT-15 colon, in the experiment on NCI-H522 lung, in the experiment on RPMI-8226 leukemia and in the experiment on SF-295 CNS was above 100 µM in each case. For the same molecule, the TGI in the experiment with SF-539 CNS, in the experiment with SK-MEL-2 melanoma and in the experiment with SNB-75 CNS was above 100 µM throughout.

On to `Cc1ccccc1C1SCc2nc3ccccc3n21` (centres undefined), for which the TGI in the experiment with A549 NSCLC, with HL-60(TB) leukemia, with NCI-H522 lung, in the experiment with RPMI-8226 leukemia, with SF-295 CNS and with SF-539 CNS was above 100 µM in each case. The TGI in the experiment on SK-MEL-2 melanoma and in the experiment with SNB-75 CNS was above 100 µM each time.

As for `CCn1c(C)nc([N+](=O)[O-])c1Sc1ncc[nH]1`, the TGI was above 100 µM with A498 renal; above 100 µM in the experiment on A549 NSCLC; 38.1 µM in the experiment with NCI-H522 lung; above 100 µM with RPMI-8226 leukemia; above 100 µM in the experiment on SF-295 CNS; above 100 µM with SF-539 CNS. Besides, the TGI with SK-MEL-2 melanoma and with SNB-75 CNS was above 100 µM each time.
